From EP0093915A1, “Novel beta-lactam derivatives” (GRUPPO LEPETIT S.P.A., priority 1982, dated 1983)

Key:
Experiment in all cases: MIC in microtiter, antibacterial spectrum in vitro
Assay type in all cases: cell-based
K. aerogenes 1522 E = details: Penassay broth (Difco), overnight incubation at 37°C
Protocol: (§1) MICS (minimum inhibitory concentrations) were determined in "microtiter" using Brain-heart infusion broth (Difco) or Penassay broth (Difco) for gram-positive or gram-negative bacteria, respectively. S. pyogenes and S. pneu- moniae were tested in Todd-Merwitt broth (Difco).
(§2) The inoculum was overnight cultures diluted to obtain 10^3 or […] respectively in the case of gram-positive or gram-negative strains.
(§3) The MIC was defined as the lowest concentration of antibiotic which […] visible growth after overnight incubation at 37 °C.

E. coli SKF 12140 = details: Penassay broth (Difco), overnight incubation at 37°C
Protocol: as §1, §2, §3

S. aureus ATCC 6538 = details: Brain-heart infusion broth (Difco), overnight incubation at 37°C
Protocol: as §1, §2, §3

S. pneumoniae UC 41 = details: Todd-Merwitt broth (Difco), overnight incubation at 37°C
Protocol: as §1, §2, §3

S. pyogenes c 203 ISM = details: Todd-Merwitt broth (Difco), overnight incubation at 37°C
Protocol: as §1, §2, §3

E cloacae P 99 1321 E = details: Penassay broth (Difco), overnight incubation at 37°C
Protocol: as §1, §2, §3

E. cloacae 45 = details: Penassay broth (Difco), overnight incubation at 37°C
Protocol: as §1, §2, §3

P. vulgaris ATCC 881 = details: Penassay broth (Difco), overnight incubation at 37°C
Protocol: as §1, §2, §3

[1] = test system: S. pyogenes c 203 SKF 13400; details: Todd-Merwitt broth (Difco), overnight incubation at 37°C
Protocol: as §1, §2, §3

S. aureus Smith = details: Brain-heart infusion broth (Difco), overnight incubation at 37°C
Protocol: as §1, §2, §3

Row | Substance | MIC (K. aerogenes 1522 E) | MIC (E. coli SKF 12140) | MIC (S. aureus ATCC 6538) | MIC (S. pneumoniae UC 41) | MIC (S. pyogenes c 203 ISM) | MIC (E cloacae P 99 1321 E) | MIC (E. cloacae 45) | MIC (P. vulgaris ATCC 881) | MIC [1] | MIC (S. aureus Smith)
1 | Trans-(±)-6-ethyl-7-oxo-2-[[2-(2-pyridylamino)ethyl]-thio]-1-azabicyclo[3.2.0]hept-2-en-2-carboxylic acid S-oxide, (4-nitrophenyl)methyl ester [Example 22] | 12.5 µg/mL | 25 µg/mL | 0.1 µg/mL | 0.05 µg/mL | 0.1 µg/mL | 25 µg/mL | 25 µg/mL | 3.12 µg/mL |  | 
2 | Trans-(±)-6-ethyl-7-oxo-2-[[2-(2-(2-pyrimidinyl)ethy]-thio]-1-azabicyclo[3.2.0]hept-2-en-2-carboxylic acid S-oxide, (4-nitrophenyl)methyl ester [Example 23] | 3.1 µg/mL | 6.2 µg/mL | 0.1 µg/mL | 0.05 µg/mL |  | 3.1 µg/mL | 3.1 µg/mL | 3.1 µg/mL | 0.05 µg/mL | 0.1 µg/mL
3 | Trans-(±)-6-ethyl-7-oxo-2-[[2-[(2-thiazolyl)amino]-ethyl]thio]-1-azabicyclo]3.2.0]hept-2-en-2-carboxylic acid potassium salt [Example 24] | 6.2 µg/mL | 12.5 µg/mL | 0.1 µg/mL | 0.1 µg/mL |  | 12.5 µg/mL | 6.2 µg/mL | 6.2 µg/mL | 0.1 µg/mL | 0.4 µg/mL
